According to US10941063B2 (priority 2015, dated 2021):
“Also recorded” adds a separate entry of the source. Read-outs that look alike come from different tables or passages of the source.

Assays:
[1] = test system: Total bacteria; test: Removal of bacteria from high H2S water, Luminultra ATP test method (Example 17); type: cell-based
Protocol: A high H2S water sample near Odessa, Tex., USA was tested for H2S and bacteria removal.
A 600 mL portion of the water was transferred by siphon pump to a 1 L beaker outfitted with a magnetic stir bar, pH probe, ORP probe and a sealed cover with a small opening for adding chemicals. The solution was mixed at a moderate rate at room temperature using a magnetic stir plate while a 17% hydrogen peroxide solution was added in a 1.9:1 molar ratio of oxidant to sulfide to remove about 80% of the H2S. […] After 10 minutes of reaction time aluminum coagulant and anionic flocculation polymer dispersion were added causing a rapid flocculation and settling of most of the pale yellow solids. The clarified supernatant was decanted to a second beaker outfitted the same as the first.
A 500 mL portion of the supernatant above was mixed while a 2.1% sodium peracetate solution was added in a 1.6:1 molar ratio of oxidant to sulfide to remove the remaining 20% of the H2S and promote a final clarification and bacteria removal. […] After 10 minutes of reaction time aluminum coagulant and anionic flocculation polymer dispersion were added causing a rapid flocculation and settling of the pale solids.

[2] = for time until ORP rose above 100 mV indicating H2S fully oxidized: 80 mg/L H2S water
Protocol: Hydrogen peroxide is an inexpensive oxidant for H2S removal, but is slow acting relative to several other oxidants. Shortening the reaction time or contact time required in a water treatment process reduces the volume of contact basins or increases the throughput of a treatment process such as that described in Example 17.
A portion of the 80 mg/L H2S water was treated by mixing into it a 17% wt/wt solution of hydrogen peroxide such that the molar ratio of hydrogen peroxide to sulfide was about 5.7:1. Hydrogen peroxide was added in excess such that it was not a limiting reagent in the oxidation reaction. The ORP and pH of the water was monitored to track the oxidation rate of H2S. FIG. 3 depicts the progression of ORP and pH over time during oxidation.
A second portion of the 80 mg/L H2S water was treated by mixing into it a 17% wt/wt solution of hydrogen peroxide such that the molar ratio of hydrogen peroxide to sulfide was about 5.7:1. A small portion of muriatic acid (about 34% hydrochloric acid solution) was added with the hydrogen peroxide to slightly lower the pH to between 6.5 and 7.0 thereby converting at least a portion of the NaHS to H2S and accelerate the reaction rate. FIG. 4 depicts the progression of ORP and pH over time during oxidation.

[3] = Stability of sodium peracetate oxidant solution (half-life, loss of active oxidant); type: physicochemical
Source text: However, the sodium peracetate oxidant solutions were discovered to be stable enough, when diluted to below 1% concentration, to have a working time practical for producing large volumes of treatment fluids in a tank for down-hole well treatment applications including hydrogen sulfide mitigation, bacteria reduction, iron sulfide scale cleaning and polymer gel breaking.
In some embodiments, to conduct a well treatment a large, diluted volume of sodium peracetate oxidant solution is preferably staged in a carrier fluid having no oxidant demand. The carrier fluid may include fresh water, salt water, treated production water and, optionally, combined with other treatment chemicals such as hydrochloric acid, citric acid, acetic acid, acid-containing micellar solvent, corrosion inhibitor, and iron chelant. Lower concentrations, less than 1%, of sodium peracetate oxidant may be staged for a limited period of time with small losses in active oxidant. For example, a 0.25% solution is expected to lose about 4-6% of its active sodium peracetate per hour at 20° C. A container, tank or tanker truck of sodium peracetate solution must be vented to release oxygen gas byproduct evolved from the oxidant as it naturally degrades in a carrier fluid.
In this example a diluted sodium peracetate oxidant solution is staged in 500 barrel (21,000 gal) quantities produced in a 55 minute period. […]

[4] = test system: naturally occurring microbes; test: Preservation of guar mixture against microbial growth; type: cell-based; settings: about 65 mg/L oxidant, at least a week at room temperature
Protocol: The use of the sodium peracetate oxidant formulation was tested for the depolymerization and break down of guar gum.
The guar mixture was made by rapidly mixing 10 g/L food grade guar gum powder into a 10 g/L sodium chloride solution in distilled water. The blended mixture was heated to about 35-40° C. in a heated water bath for at least one hour to fully hydrate the guar. The mixture appeared translucent with fine, milky white suspended solids. […] Several 60 mL portions of the guar mixture were prepared for different treatments as summarized in Table I. The first was a control sample to which no oxidant was added. The remaining samples had increasing amounts of sodium peracetate oxidant added to them. […] The oxidant was rapidly mixed with the guar mixture resulting in a pale yellow color. The mixtures were placed in a water bath at about 35-40° C. and the yellow color gradually faded away over the next hour. After two hours the samples were cooled to room temperature.
The control sample remained viscous for a day, but lost viscosity after sitting at room temperature overnight and microbial growth as a biofilm was visible after a week. […] The fine, suspended solids settled out leaving a clear, colorless solution. A second treatment of the last sample reduced the viscosity further by a small amount.

[5] = test system: acid producing bacteria (APB); test: Uintah basin produced water: acid producing bacteria level; type: cell-based; settings: for APB: untreated 100-1000
Protocol: (§1) Produced water from the Uintah basin in eastern Utah was tested for sulfide treatment and clarification with sodium peracetate solution. The untreated water appeared green-grey in color, was pH 8.1 and contained about 30 mg/L H2S (as S^2), 90 mg/L organic or other sulfides (as S^2−), and 90 mg/L sulfate. Total iron was about 5 mg/L therefore iron sulfide was only a minor sulfide component.
(§2) A first water sample was treated by a “partial oxidation” in Table II with sodium peracetate oxidant solution. The water was stirred in a closed container while sodium peracetate oxidant was added in a 1.25:1 molar ratio of oxidant to H2S. Aluminum coagulant (about 35 mg/L as Al) was added with the oxidant. The mixture was stirred for 30 seconds and then about 5 mg/L of anionic polymer was added. Large floe formed rapidly over the next 60 seconds and then stirring was stopped. The flocculated solids settled rapidly leaving a clear, colorless supernatant. The “partial oxidation” treatment removed hydrogen sulfide and reduced acid producing bacteria (APB) and sulfate reducing bacteria (SRB) levels to 1-10 cells/mL for each. The ORP increased from −166 mV to 88 mV vs SHE (oxidant was fully consumed) and there was a 20 ppm increase in sulfate concentration due to oxidation of a small portion of sulfur-containing contaminants to sulfate.
(§3) A second water sample was treated by a “full oxidation” in Table II with sodium peracetate oxidant solution. The water was stirred in a closed container while sodium peracetate oxidant was added in a 3.8:1 molar ratio of oxidant to H2S. Aluminum coagulant (about 35 mg/L as Al) was added with the oxidant. The mixture was stirred for 30 seconds and then about 5 mg/L of anionic polymer was added. Large floe formed rapidly over the next 60 seconds and then stirring was stopped. The flocculated solids settled rapidly leaving a clear, colorless supernatant. […]

[6] = test system: sulfate reducing bacteria (SRB); test: Uintah basin produced water: sulfate reducing bacteria level; type: cell-based; settings: for SRB: untreated 10-100
Protocol: as §1, §2, §3

[7] = 7% sodium peracetate solution in clean water; cited from earlier work
[8] = Treated Water Full Oxidation (3.8:1)
[9] = Treated Water Partial Oxidation (1.25:1)
[10] = full oxidation (3.8:1), after 4 months at room temperature

Row | Compound | ATP and corresponding bacteria population reduced by ([1]; first step: hydrogen peroxide 1.9:1, then coagulant and polymer) | ATP concentration in supernatant ([1]; first step: hydrogen peroxide 1.9:1, then coagulant and polymer, untreated 280 pg/mL) [pg/mL] | time until ORP rose above 100 mV indicating H2S fully oxidized ([2]; 17% wt/wt hydrogen peroxide, 5.7:1 molar to sulfide, no acid) | time until ORP rose above 100 mV indicating H2S fully oxidized ([2]; hydrogen peroxide 5.7:1 with muriatic acid, pH between 6.5 and 7.0) | rate of H2S oxidation when acid was added with the oxidant ([2]; hydrogen peroxide 5.7:1 with muriatic acid versus without) | loss of active oxidant concentration ([3]; 0.2% diluted solution, in 55 minutes at 25° C.) [%] | loss of active sodium peracetate per hour ([3]; 0.25% solution, 20° C.) | microbial growth in guar mixture (preservative effect) [4] | ATP and corresponding bacteria population reduced by, relative to the untreated water ([1]; after second step: sodium peracetate 1.6:1 following hydrogen peroxide step) [%] | ATP concentration in supernatant ([1]; second step: sodium peracetate 1.6:1 after hydrogen peroxide step) [pg/mL] | APB [5, 8] [cells/mL] | APB [5, 9] | grow back of APB [5, 10] | SRB [6, 8] [cells/mL] | SRB [6, 9] | grow back of SRB [6, 10] | half-life [7]
1 | OO [hydrogen peroxide] | about 95% | 14 | about 22 minutes | about 9 minutes | approximately doubled |  |  |  |  |  |  |  |  |  |  |  | 
2 | sodium peracetate [sodium peracetate oxidant solution] |  |  |  |  |  | ~4 | 4-6% | did act as a preservative; also recorded: no microbial growth was observed | 99 | 3 | <1 | 1-10 cells/mL | no detectable grow back | <1 | 1-10 cells/mL | no detectable grow back | about 80 minutes
